In patent US20130309736A1, “COMPOSITIONS AND METHODS FOR MALATE AND FUMARATE PRODUCTION” (CARGILL, INCORPORATED, priority 2011, published 2013):

Experiments:
[1] = 15.5° C.; cited from earlier work
[2] = tested on: Candida guilliermondii ATCC 20118; assay: Glucose consumption rate in YPD shake flasks (second secondary screen); format: cell-based
Procedure: (§1) For the second secondary screen, glucose consumption was measured in YPD media containing 0 g/L malate at pH 3.0 or 200 g/L malate at pH 2.85. Shake flasks were inoculated with biomass harvested from seed flasks grown overnight to an OD600 of 6 to 10. 250 mL baffled glycolytic assay flasks (50 mL working volume) were inoculated to an OD600 of 0.1 and grown at 250 RPM and 30° C. Samples were taken throughout the time course of the assay and analyzed for glucose consumption using a 2700 Biochemistry Analyzer (Yellow Springs Instruments, YSI). The resulting data was plotted and glucose consumption rates were established.

[3] = tested on: Candida vanderwaltii MUCL 30000; assay: as above; format: cell-based
Procedure: as §1

[4] = tested on: Issatchenkia orientalis ATCC 60585; assay: as above; format: cell-based
Procedure: as §1

[5] = tested on: Candida sorbosivorans CD1978; assay: as above; format: cell-based
Procedure: as §1

[6] = tested on: Issatchenkia orientalis CD1822; assay: Growth rate in YPD shake flasks (first secondary screen); format: cell-based
Procedure: (§2) For the first secondary screen, growth rates were measured in YPD media containing 0 g/L malate at pH 3.0 or 200 g/L malate at pH 2.85. Shake flasks were inoculated with biomass harvested from seed flasks grown overnight to an OD600 of 6 to 10. 250 mL baffled growth rate flasks (50 mL working volume) were inoculated to an OD600 of 0.1 and grown at 250 rpm and 30° C. Samples were taken throughout the time course of the assay and analyzed for biomass growth via OD600. The resulting OD600 data was plotted and growth rates were established.
(§3) The same procedures were utilized to screen, rate, and score the original 91 wild-type yeast strains from the primary screen with media containing 0, 30, 45, and 60 g/L lactic acid at pH 3.0 (˜80% free acid). Due to difficulties in properly scoring some very weak growth that occasionally occurred at 60 g/L, 20 strains were re-tested in the primary screen. Of these 20 strains, eight were eliminated due to very slow growth relative to the rest of the test group. The remaining 12 strains were advanced into secondary screening. The secondary screen for lactic acid was the same as that described above for malate, except for changes in concentrations and pH values. Growth rates were measured at 0 g/L lactic acid, pH 3.0 and 50 g/L lactic acid, pH 2.85, and glucose consumption rates were measured in the presence of 50 g/L lactic acid, pH 2.85. Normalized values and weighted and summed scores were calculated for each strain as described above for malate.

[7] = tested on: Issatchenkia orientalis ATCC 24210; assay: as above; format: cell-based
Procedure: as §2, §3

[8] = tested on: Candida sorbosivorans ATCC 38619; assay: as above; format: cell-based
Procedure: as §2, §3

[9] = tested on: Issatchenkia orientalis ATCC PTA-6658; assay: as above; format: cell-based
Procedure: as §2, §3

[10] = tested on: Candida lambica ATCC 38617; assay: as above; format: cell-based
Procedure: as §2, §3

[11] = tested on: Saccharomyces bulderi ATCC MYA-404; assay: as above; format: cell-based
Procedure: as §2, §3

[12] = tested on: Issatchenkia orientalis CD1822; assay: Glucose consumption rate in YPD shake flasks (second secondary screen); format: cell-based
Procedure: as §1, §3

[13] = tested on: Issatchenkia orientalis ATCC 24210; assay: as above; format: cell-based
Procedure: as §1, §3

[14] = tested on: Candida sorbosivorans ATCC 38619; assay: as above; format: cell-based
Procedure: as §1, §3

[15] = tested on: Issatchenkia orientalis ATCC PTA-6658; assay: as above; format: cell-based
Procedure: as §1, §3

[16] = tested on: Candida lambica ATCC 38617; assay: as above; format: cell-based
Procedure: as §1, §3

[17] = tested on: Saccharomyces bulderi ATCC MYA-404; assay: as above; format: cell-based
Procedure: as §1, §3

[18] = tested on: seven wild-type yeast strains; assay: Range finding: overnight growth in microtiter wells with malate; format: cell-based; conditions: YPD, 30° C.
Procedure: The range of malate concentrations to utilize in primary screening procedures was determined by evaluating the ability of seven wild-type yeast strains (Candida sonorensis, Candida zemplinina, I. orientalis strain PTA-6658, I. orientalis strain CD1822, Kluyveromyces lactis, K. marxianus, S. cerevisiae strain CENPK 113-7D) to grow on media containing varying levels of malate. Cells were streaked onto YPD plates and grown overnight. A cell slurry with an OD600 of around 4 was made in YPD media, pH 3.0, and this slurry was used to inoculate microtiter wells containing various concentrations of malate to an OD600 of 0.05. Plates were covered with a gas permeable membrane and incubated in a 30° C./300 rpm shaker overnight. The optical densities of each well were measured at a wavelength of 600 nm in a GENios model plate reader (Tecan), and plates were observed visually for growth. The highest malate concentration that one or more of the strains grew in (350 g/L) was chosen as the upper range for primary screening procedure.

[19] = tested on: wild-type yeast strains; assay: Additional primary screen: growth on microtiter plates with malate; format: cell-based; conditions: ten strains of 24 re-tested; 200 g/L malate, pH 2.85, microtiter plates, overnight
Procedure: For the primary screening procedure, 91 wild-type yeast strains were screened for growth on microtiter plates at pH 2.85 with 0 g/L, 150 g/L, 300 g/L, or 350 g/L pH 2.85 malate using the same protocol used for range finding. A fresh YPD plate was used for each strain, and a slurry with an OD600 of around 4 was made in YPD media, pH 3.0. The slurry was used to inoculate each well to an OD600 of 0.05. Plates were covered with a gas permeable membrane, and incubated in a 30° C./300 rpm shaker overnight. Optical densities of each well were measured at 600 nm in a GENios model plate reader, and plates were observed visually for growth. To account for plate-to-plate variability, I. orientalis PTA-6658 was included on all plates as a control. […] As such, an additional screen was added wherein the 24 strains that grew as well or better than the I. orientalis control strain were re-tested. […] These ten strains were advanced to the secondary screens. […] However, it is possible that one or more such strains could nonetheless meet the minimum requirements for a commercially viable fermentation process.

[20] = tested on: Candida guilliermondii ATCC 20118; assay: Growth rate in YPD shake flasks (first secondary screen); format: cell-based
Procedure: as §2

[21] = tested on: Candida vanderwaltii MUCL 30000; assay: as above; format: cell-based
Procedure: as §2

[22] = tested on: Issatchenkia orientalis ATCC 60585; assay: as above; format: cell-based
Procedure: as §2

[23] = tested on: Candida sorbosivorans CD1978; assay: as above; format: cell-based
Procedure: as §2

[24] = tested on: yeast cells; assay: EMS mutagenesis, kill rate; format: cell-based; conditions: 3 μL EMS in 200 μL cell suspension (OD600 around 10), approximately one hour
Procedure: For example, yeast cells from a fresh YP (yeast extract/peptone)+20 g/L glucose plate or liquid culture (OD600 1-4) are resuspended in sterile water to an OD600 of around 10. 200 μL aliquots of this cell suspension are pipetted into individual tubes and exposed to 3 μL […] (EMS) for approximately one hour, which kills around 65% of the cells. Higher EMS concentrations can also be used to increase the kill rate. After exposure, cells are neutralized with 5% sodium thiosulfate, washed in PBS buffer, recovered in rich media for approximately four hours, and cultured on selective media. Mock samples (no EMS) are also run to ensure that the conditions are selective. Alternatively, cell can be mutagenized using UV irradiation.

[25] = malate, slope of growth rates against acid concentration, scale 0 to 1
[26] = Candida sorbosivorans ATCC 24120, scale 0 to 1
[27] = Candida sorbosivorans ATCC 38619, YPD, 30° C.

O=C(O)/C=C/C(=O)O [Fumarate, trans-butanedioic acid]
water solubility [1]: 4.28 g/kg H2O

O=C(O)CC(O)C(=O)O (stereo not drawn) [malate, hydroxybutanedioc acid]
Glucose consumption rate 200 g/L malate (pH 2.85) ([2]; Candida guilliermondii ATCC 20118, YPD, 30° C.): 1.9 g L^−1 h^−1
Normalized grade: Glucose consumption rate 200 g/L malate (pH 2.85) ([2]; Candida guilliermondii, scale 0 to 1): 0.30
Glucose consumption rate 200 g/L malate (pH 2.85) ([3]; YPD, 30° C.): 1.3 g L^−1 h^−1
Normalized grade: Glucose consumption rate 200 g/L malate (pH 2.85) ([3]; scale 0 to 1): 0.00
Glucose consumption rate 200 g/L malate (pH 2.85) ([4]; YPD, 30° C.): 2.7 g L^−1 h^−1
Normalized grade: Glucose consumption rate 200 g/L malate (pH 2.85) ([4]; scale 0 to 1): 0.70
Glucose consumption rate 200 g/L malate (pH 2.85) ([5]; YPD, 30° C.): 1.85 g L^−1 h^−1
Normalized grade: Glucose consumption rate 200 g/L malate (pH 2.85) ([5]; scale 0 to 1): 0.28
Growth rate 200 g/L malate (pH 2.85) ([6]; YPD, 30° C.): 0.42 h^−1
Normalized grade: Growth rate slope [6, 25]: 0.67
Normalized grade: Growth rate 200 g/L malate (pH 2.85) ([6]; scale 0 to 1): 0.82
Growth rate 200 g/L malate (pH 2.85) ([7]; YPD, 30° C.): 0.39 h^−1
Normalized grade: Growth rate slope [7, 25]: 0.56
Normalized grade: Growth rate 200 g/L malate (pH 2.85) ([7]; scale 0 to 1): 0.55
Normalized grade: Growth rate slope ([8]; Candida sorbosivorans ATCC 24120, malate, slope of growth rates against acid concentration, scale 0 to 1): 0.92
Normalized grade: Growth rate 200 g/L malate (pH 2.85) [8, 26]: 0.36
Growth rate 200 g/L malate (pH 2.85) [8, 27]: 0.37 h^−1
Growth rate 200 g/L malate (pH 2.85) ([9]; YPD, 30° C.): 0.44 h^−1
Normalized grade: Growth rate slope [9, 25]: 0.67
Normalized grade: Growth rate 200 g/L malate (pH 2.85) ([9]; scale 0 to 1): 1.00
Growth rate 200 g/L malate (pH 2.85) ([10]; YPD, 30° C.): 0.33 h^−1
Normalized grade: Growth rate slope [10, 25]: 0.41
Normalized grade: Growth rate 200 g/L malate (pH 2.85) ([10]; scale 0 to 1): 0.00
Growth rate 200 g/L malate (pH 2.85) ([11]; YPD, 30° C.): 0.39 h^−1
Normalized grade: Growth rate slope [11, 25]: 1.00
Normalized grade: Growth rate 200 g/L malate (pH 2.85) ([11]; scale 0 to 1): 0.55
Glucose consumption rate 200 g/L malate (pH 2.85) ([12]; YPD, 30° C.): 3.3 g L^−1 h^−1
Normalized grade: Glucose consumption rate 200 g/L malate (pH 2.85) ([12]; scale 0 to 1): 1.00
Glucose consumption rate 200 g/L malate (pH 2.85) ([13]; YPD, 30° C.): 3.1 g L^−1 h^−1
Normalized grade: Glucose consumption rate 200 g/L malate (pH 2.85) ([13]; scale 0 to 1): 0.90
Normalized grade: Glucose consumption rate 200 g/L malate (pH 2.85) [14, 26]: 0.05
Glucose consumption rate 200 g/L malate (pH 2.85) [14, 27]: 1.4 g L^−1 h^−1
Glucose consumption rate 200 g/L malate (pH 2.85) ([15]; YPD, 30° C.): 3.3 g L^−1 h^−1
Normalized grade: Glucose consumption rate 200 g/L malate (pH 2.85) ([15]; scale 0 to 1): 1.00
Glucose consumption rate 200 g/L malate (pH 2.85) ([16]; YPD, 30° C.): 3.2 g L^−1 h^−1
Normalized grade: Glucose consumption rate 200 g/L malate (pH 2.85) ([16]; scale 0 to 1): 0.95
Glucose consumption rate 200 g/L malate (pH 2.85) ([17]; YPD, 30° C.): 3.15 g L^−1 h^−1
Normalized grade: Glucose consumption rate 200 g/L malate (pH 2.85) ([17]; scale 0 to 1): 0.93
highest malate concentration that one or more of the strains grew in [18]: 350 g/L
optical density relative to the same strain in 0 g/L malic acid [19]: greater than or equal to 50%
Growth rate 200 g/L malate (pH 2.85) ([20]; YPD, 30° C.): 0.42 h^−1
Normalized grade: Growth rate slope [20, 25]: 1.00
Normalized grade: Growth rate 200 g/L malate (pH 2.85) ([20]; scale 0 to 1): 0.82
Growth rate 200 g/L malate (pH 2.85) ([21]; YPD, 30° C.): 0.39 h^−1
Normalized grade: Growth rate slope [21, 25]: 0.92
Normalized grade: Growth rate 200 g/L malate (pH 2.85) ([21]; scale 0 to 1): 0.55
Growth rate 200 g/L malate (pH 2.85) ([22]; YPD, 30° C.): 0.36 h^−1
Normalized grade: Growth rate slope [22, 25]: 0.54
Normalized grade: Growth rate 200 g/L malate (pH 2.85) ([22]; scale 0 to 1): 0.27
Growth rate 200 g/L malate (pH 2.85) ([23]; YPD, 30° C.): 0.34 h^−1
Normalized grade: Growth rate slope [23, 25]: 0.00
Normalized grade: Growth rate 200 g/L malate (pH 2.85) ([23]; scale 0 to 1): 0.09

CCOS(C)(=O)=O [ethane methyl sulfonate]
cells killed [24]: around 65%
